Data set [1] relates to consumption of oxygen by the myocardium. The data set can be described thus: Consumption of oxygen by the myocardium. Particulars: in vivo. An excerpt:
Furthermore, the indolizine derivatives present a β-antiadrenergic effect which is much more powerful than that of the derivatives of the aforesaid U.S. patent. At the minimum dose required to produce bradycardia, a reduction in arterial pressure, α-antiadrenergic and coronarodilatory effects to a significant degree, the β-antiadrenergic effect is, in fact, only slight in the case of the derivatives of the U.S. patent in question whereas it is much stronger with the indolizine derivatives of the invention. Moreover, the compounds of the invention reduce the consumption of oxygen by the myocardium calculated by multiplying the difference between the arterial and venous blood in oxygen by the coronary blood-flow. Thus, the compounds of the invention cause a considerable reduction in the arterio-venous difference which induces a decrease in the consumption of oxygen in spite of the increase of the coronary blood-flow.

The nature of data set [2]: Acute toxicity by intravenous route to mice. Conditions: mouse, in vivo, oxalate acid form except those marked (hydrochloride). The method, then: (§1) Acute toxicity tests were carried out on rats and mice. The following results were registered in comparison with butoprozine. The compounds of the invention were used in oxalate acid form except those marked (x) which were tested in hydrochloride form.

Data set [3] can be described thus: Acute toxicity by intravenous route to rats. Format: in vivo. Conditions: rat, in vivo, oxalate acid form except those marked (hydrochloride). The method, then:
as §1

Data set [4] in a line: Acute toxicity by intragastric route to mice. Format: in vivo. Conditions: mouse, in vivo, po, oxalate acid form except those marked (hydrochloride). The method, then: as §1
The test system of data set [5] is mice. The data set can be described thus: Acute toxicity by intragastric route to mice. Format: in vivo. Particulars: hydrochloride form (marked). The method, then: as §1
Data set [6] deals with rats. The data set can be described thus: Acute toxicity by intravenous route to rats. The data set is classed as in vivo. Conditions: oxalate acid form except those marked (hydrochloride). On the procedure: as §1
Data set [7] concerns blood-flow to the myocardium. The data set can be described thus: Effect on blood-flow to the myocardium, anaesthetized dogs, intravenous. Format: in vivo, dog. Particulars: anaesthetized dog. The method, then:
It was undertaken on anaesthetized dogs which received the substance under study by intravenous route. The intensity of the maximum effect on blood-flow to the myocardium was expressed in percentage of the corresponding value before injection. The time required for the maximum effect to decrease by 50% represented the duration of the effect. This time was measured in minutes.

Data set [8] concerns epinephrine-increased blood-pressure (anti-α effect). The data set can be described thus: Antiadrenergic effect: anti-α effect (reduction of epinephrine-increased blood-pressure). The data set is classed as in vivo. Particulars: dog. The method in brief:
(§2)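 Pentobarbital-anaesthetized, atropinized dogs given an epinephrine dose (5–10 μg/kg) raising arterial pressure about 100 mm Hg, then test compound i.v. Reduction of the pressor response (anti-α) and of the ~70-beat tachycardia (anti-β) scored: + <50%, ++ ≥50%, +++ subtotal.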

In data set [9] the test system is dog. The data set can be described thus: Cardiac tolerance and general toxicity in long-term toxicity tests, oral, dog. Particulars: in vivo.
In data set [10] the test system is epinephrine-accelerated heart rate (anti-β effect). The data set can be described thus: Antiadrenergic effect: anti-β effect (reduction of epinephrine-accelerated heart rate). Particulars: dog; for inhibition in vivo at 5 mg/kg: dose 5 mg/kg i.v.; for Anti-β effect / inhibition in vivo at 10 mg/kg: dose 10 mg/kg i.v. Format: in vivo. The method, boiled down: as §2

The subject of data set [11] is ventricular fibrillation. The data set can be described thus: Anti-arrhythmic properties, LAWSON test (chloroform-provoked arrhythmia), intragastric. The data set is classed as in vivo. Conditions: Mus musculus, po, mice, read-out: AD50 (dose protecting 50% of the animals against ventricular fibrillation). On the procedure: The arrhythmia was provoked by making the animals inhale chloroform to total asphyxia and by later observing the ventricular rhythm. The dose of compound protecting 50% of the animals against ventricular fibrillation i.e. the AD50 was then recorded.

Data set [12] is described as follows: Blood level after oral dose in the dog. The data set is classed as in vivo. Particulars: same oral dose.
Where [13] appears, read: Canis lupus familiaris, iv, dose 10 mg/kg i.v., read-out: Max. increase (blood-flow to the myocardium).

The structures appear in SMILES notation.

Regarding `OCCN(CCO)c1nc(N2CCCCC2)c2nc(N(CCO)CCO)nc(N3CCCCC3)c2n1` [dipyridamole], in data set [1], the “Consumption of oxygen by the myocardium” value is on record as “does not decrease the consumption of oxygen by the myocardium”.
Take `CCCCN(CCCC)CCCOc1ccc(C(=O)c2c(C)c(Br)c3ccccn23)cc1Br.Cl` [(*)Br/Br/H/CH3/n-C4H9/3, 1-Bromo-2-methyl-3-[4-(3-di-n-butylaminopropyl)-oxy-3-bromo-benzoyl]-indolizine hydrochloride]: the LD50 was 50 mg/kg in data set [2], 70 mg/kg in [3] and above 5000 mg/kg in data set [4]. This compound also returned an LD0 in data set [5] above 5000 mg/kg.
As to `CCCCc1c(C)c2ccccn2c1C(=O)c1ccc(OCCCN(CCC)CCC)c(Br)c1` [CH3/Br/H/n-C4H9/n-C3H7/3, 1-Methyl-2-n-butyl-3-[4-(3-di-n-propylaminopropyl)-oxy-3-bromo-benzoyl]-indolizine], the 50% lethal dose (LD50) in data set [2] was 50 mg/kg.
In turn, `CCCCc1cc2ccccn2c1C(=O)c1ccc(OCCCN(CCCC)CCCC)c(Cl)c1.Cl` [(*)H/Cl/H/n-C4H9/n-C4H9/3, 2-n-butyl-3-[4-(3-di-n-butylaminopropyl)-oxy-3-chloro-benzoyl]-indolizine hydrochloride] gave an LD50 in [3] above 50 mg/kg. This compound showed an LD0 in data set [6] above 50 mg/kg.
Turning to `CCCCN(CCCC)CCCOc1ccc(C(=O)c2c(-c3ccc(Cl)cc3)c(Br)c3ccccn23)cc1Cl` [Br/Cl/H/drawing 50/n-C4H9/3], in data set [3], the LD50 is above 100 mg/kg. In [6], this compound came in with an LD0 above 100 mg/kg.
Take `CCCCN(CCCC)CCCOc1ccc(C(=O)c2c(CC)cc3ccccn23)cc1` [Butoprozine, 2-ethyl-3-[4-(3-di-n-butylaminopropyl)-oxy-benzoyl]-indolizine, reference compound]: the change in vivo at 10 mg/kg in data set [7] (setting [13]) stood at 120%. Moreover, the “Time required to decrease to 50% (duration of effect)” value in [7] (dose 10 mg/kg i.v.) turned out to be 4 min. Further, in [8] (dose 5 mg/kg i.v.), the Anti-α effect entry is recorded as “+++”. The “Dose provoking ventricular arrhythmia (as low as)” value in [9] was determined as 50 mg/kg/day. Moreover, the Lethal dose in data set [9] was in the range of 50 to 100 mg/kg/day. The inhibition in vivo at 5 mg/kg in data set [10] (Canis lupus familiaris, iv) is below 50%. Also, the LD50 in data set [2] was found to be 25 mg/kg; in data set [3], 22 mg/kg; in [4] it was 1600 mg/kg. Further, the ED50 in [11] is 270 mg/kg.
As for `CCCCc1cc2ccccn2c1C(=O)c1ccc(OCCCN(CCC)CCC)c(C)c1` [H/CH3/H/n-C4H9/n-C3H7/3, 2-n-Butyl-3-[4-(3-di-n-propylaminopropyl)-oxy-3-methyl-benzoyl]-indolizine], the inhibition in vivo at 5 mg/kg was above 50% in data set [8] (Canis lupus familiaris, iv, dose 5 mg/kg i.v.) and below 50% in data set [10] (Canis lupus familiaris, iv). The 50% lethal dose (LD50) in [2] is above 50 mg/kg.
For the compound `CCCCc1cc2ccccn2c1C(=O)c1ccc(OCCCN(CCCC)CCCC)c(Br)c1` [H/Br/H/n-C4H9/n-C4H9/3, 2-n-Butyl-3-[4-(3-di-n-butylaminopropyl)-oxy-3-bromo-benzoyl]-indolizine], the change in vivo at 5 mg/kg in data set [7] (Canis lupus familiaris, iv, dose 5 mg/kg i.v., read-out: Max. increase (blood-flow to the myocardium)) came out at 70%. Further, the “Time required to decrease to 50% (duration of effect)” value in [7] (dose 5 mg/kg i.v.) was 60 min. Besides, the Anti-α effect result in data set [8] (dose 5 mg/kg i.v.) and in data set [8] (dose 10 mg/kg i.v.) was “+++” throughout. Moreover, the inhibition in vivo at 5 mg/kg in data set [10] (Canis lupus familiaris, iv) is above 50%. For the same compound, the Anti-β effect entry in data set [10] is recorded as “+++”. The median lethal dose (LD50) in data set [3] amounted to 60 mg/kg. Also, in [11], the ED50 is 170 mg/kg.
Consider `CCCCc1c(Cl)c2ccccn2c1C(=O)c1ccc(OCCCN(CCCC)CCCC)cc1` [Cl/H/H/n-C4H9/n-C4H9/3, 1-Chloro-2-n-butyl-3-[4-(3-di-n-butylaminopropyl)-oxy-benzoyl]-indolizine], for which the change in vivo at 10 mg/kg in data set [7] (setting [13]) worked out at 60%. Also, in [7] (dose 10 mg/kg i.v.), the “Time required to decrease to 50% (duration of effect)” value was 30 min. Moreover, the Anti-α effect result in [8] (dose 10 mg/kg i.v.) is given as “+++”. The inhibition in vivo at 10 mg/kg in data set [10] (Canis lupus familiaris, iv) was above 50%. In [3], this compound yielded a median lethal dose (LD50) of 50 mg/kg.
As to `CCCCN(CCCC)CCCOc1ccc(C(=O)c2c(CC)c(Cl)c3ccccn23)cc1Cl` [Cl/Cl/H/C2H5/n-C4H9/3, 1-Chloro-2-ethyl-3-[4-(3-di-n-butylaminopropyl)-oxy-3-chloro-benzoyl]-indolizine], in [7] (Canis lupus familiaris, iv, dose 1 mg/kg i.v., read-out: Max. increase (blood-flow to the myocardium)), the change in vivo at 1 mg/kg came out at 40%. The “Time required to decrease to 50% (duration of effect)” value in data set [7] (dose 1 mg/kg i.v.) came to 15 min. Further, the Anti-α effect entry in data set [8] (dose 0.5 mg/kg i.v.) is on record as “+++”. The inhibition in vivo at 0.5 mg/kg in [10] (Canis lupus familiaris, iv, dose 0.5 mg/kg i.v.) was below 50%. Also, the median lethal dose (LD50) in data set [3] stood at 50 mg/kg.
For `CCCCN(CCCC)CCCOc1ccc(C(=O)c2c(C)c(Br)c3ccccn23)cc1Br` [Br/Br/H/CH3/n-C4H9/3, 1-Bromo-2-methyl-3-[4-(3-di-n-butylaminopropyl)-oxy-3-bromo-benzoyl]-indolizine], the Anti-α effect result in [8] (dose 5 mg/kg i.v.) and in data set [8] (dose 10 mg/kg i.v.) was “+++” each time. Also, the “Blood level compared with butoprozine” value in data set [12] is “three times higher”. The inhibition in vivo at 5 mg/kg in [10] (Canis lupus familiaris, iv) was above 50%. In addition, the Anti-β effect result in [10] is “+++”. Moreover, the ED50 in data set [11] worked out at 180 mg/kg.
Turning to `CCCCN(CCCC)CCCOc1c(C)cc(C(=O)c2c(CC)c(I)c3ccccn23)cc1C` [I/CH3/CH3/C2H5/n-C4H9/3, 1-Iodo-2-ethyl-3-[4-(3-di-n-butylaminopropyl)-oxy-3,5-dimethyl-benzoyl]-indolizine], the Anti-α effect entry in data set [8] (dose 10 mg/kg i.v.) is “+++”. Moreover, the Anti-β effect entry in data set [10] was “+++”. Besides, the ED50 in data set [11] is 100 mg/kg.
As for `CCCCN(CCCC)CCCOc1c(C)cc(C(=O)c2c(C)c(Br)c3ccccn23)cc1C` [Br/CH3/CH3/CH3/n-C4H9/3, 1-Bromo-2-methyl-3-[4-(3-di-n-butylaminopropyl)-oxy-3,5-dimethyl-benzoyl]-indolizine], in data set [8] (dose 10 mg/kg i.v.), the Anti-α effect entry is given as “+++”. This compound showed an inhibition in vivo at 10 mg/kg in data set [10] (Canis lupus familiaris, iv) above 50%. Moreover, the ED50 in data set [11] was below 100 mg/kg.

The record behind these values is patent publication US4520026A, “Indolizine derivatives and use as cardiovascular agents” (S. A. Labaz N.V., priority 1982, dated 1985).
